From ChEMBL document CHEMBL1817546, “The synthesized novel fluorinated compound (LJJ-10) induces death receptor- and mitochondria-dependent apoptotic cell death in the human osteogenic sarcoma U-2 OS cells” (Eur J Med Chem, 2011)
Activity calls are given as the source filed them. No cut-off for these calls is given here.

How the values were obtained:
[1] = test system: HL-60; assay: Cytotoxicity against human HL60 cells after 48 hrs by MTT assay; type: functional, cell-based; details: HL-60, 48 h
[2] = test system: U-937; assay: Cytotoxicity against human U937 cells after 48 hrs by MTT assay; type: functional, cell-based; details: U-937, 48 h
[3] = Cytotoxicity against human HT29-AK cells after 48 hrs by MTT assay; type: functional, cell-based
[4] = test system: COLO 205; assay: Cytotoxicity against human COLO205 cells after 48 hrs by MTT assay; type: functional, cell-based; details: COLO 205, 48 h
[5] = test system: U2OS; assay: Cytotoxicity against human U2OS cells after 48 hrs by MTT assay; type: functional, cell-based
[6] = test system: MCF7; assay: Cytotoxicity against human MCF7 cells after 48 hrs by MTT assay; type: functional, cell-based; details: MCF7, 48 h
[7] = test system: MDA-MB-231; assay: Cytotoxicity against human MDA-MB-231 cells after 48 hrs by MTT assay; type: functional, cell-based; details: MDA-MB-231, 48 h
[8] = test system: U2OS; assay: Cytotoxicity against human U2OS cells assessed as growth inhibition after 48 hrs by MTT assay relative to control; type: functional, cell-based
[9] = Cytotoxicity against human FOB cells assessed as reduction in cell number after 48 hrs by MTT assay relative to control; type: cell-based
[10] = test system: U2OS; assay: Induction of apoptosis in human U2OS cells assessed as cell rounding at 30 uM after 48 hrs by phase-contrast microscopic analysis; type: functional, cell-based
[11] = test system: U2OS; assay: Induction of DNA damage in human U2OS cells by comet assay; type: functional, cell-based
[12] = test system: U2OS; assay: Induction of apoptosis in human U2OS cells after 48 hrs by MTT assay in presence of ROS scavenger NAC; type: functional, cell-based
[13] = Induction of death receptor signaling-mediated apoptosis in human U2OS cells assessed as increase in Fas expression at 30 uM after 12 hrs using FasL-FITC mAb by flow cytometry (Rvb= 2.01+/-0.74 %); type: cell-based
[14] = Induction of death receptor signaling-mediated apoptosis in human U2OS cells assessed as increase in production of reactive oxygen species at 30 uM after 2 to 12 hrs by flow cytometry relative to control; type: cell-based; details: TDE = time-dependent effect
[15] = Induction of death receptor signaling-mediated apoptosis in human U2OS cells assessed as decrease in mitochondrial membrane potential at 30 uM after 2 to 12 hrs relative to control; type: cell-based; details: TDE = time-dependent effect
[16] = Induction of death receptor signaling-mediated apoptosis in human U2OS cells assessed as increase caspase-8 activity measuring release of pNA at 30 uM after 48 hrs by spectrophotometry; type: cell-based
[17] = Induction of death receptor signaling-mediated apoptosis in human U2OS cells assessed as increase caspase-9 activity measuring release of pNA at 30 uM after 48 hrs by spectrophotometry; type: cell-based
[18] = Induction of death receptor signaling-mediated apoptosis in human U2OS cells assessed as increase caspase-3 activity measuring release of pNA at 30 uM after 48 hrs by spectrophotometry; type: cell-based
[19] = Induction of death receptor signaling-mediated apoptosis in human U2OS cells assessed as decrease in cell viability at 30 uM after 48 hrs by MTT assay in presence of caspase-3 inhibitor […]; type: cell-based
[20] = Induction of death receptor signaling-mediated apoptosis in human U2OS cells assessed as decrease in cell viability at 30 uM after 48 hrs by MTT assay in presence of caspase-8 inhibitor Z-IETD-FMK; type: cell-based
[21] = Induction of death receptor signaling-mediated apoptosis in human U2OS cells assessed decrease in as cell viability at 30 uM after 48 hrs by MTT assay in presence of caspase-9 inhibitor Z-LEHD-FMK; type: cell-based
[22] = Induction of death receptor signaling-mediated apoptosis in human U2OS cells assessed as increase in Fas level at 30 uM after 12 to 48 hrs by Western blotting method; type: cell-based
[23] = Induction of death receptor signaling-mediated apoptosis in human U2OS cells assessed as decrease in pro-caspase3 level at 30 uM after 12 to 48 hrs by Western blotting method; type: cell-based
[24] = Induction of death receptor signaling-mediated apoptosis in human U2OS cells assessed as increase in cytochrome c level at 30 uM after 12 to 48 hrs by Western blotting; type: cell-based
[25] = test system: U2OS; assay: Induction of apoptosis in human U2OS cells assessed as cell shrinking at 30 uM after 48 hrs by phase-contrast microscopic analysis; type: functional, cell-based
[26] = test system: U2OS; assay: Induction of apoptosis in human U2OS cells after 48 hrs by MTT assay in presence of cyclosporine A; type: functional, cell-based
[27] = test system: U2OS; assay: Induction of apoptosis in human U2OS cells after 48 hrs by MTT assay in presence of anti-FasL monoclonal antibody; type: functional, cell-based
[28] = Induction of death receptor signaling-mediated apoptosis in human U2OS cells assessed as increase in FasL expression at 30 uM after 12 hrs using FasL-FITC mAb by flow cytometry (Rvb= 1.23+/-0.11 %); type: cell-based
[29] = Induction of death receptor signaling-mediated apoptosis in human U2OS cells assessed as increase in FasL level at 30 uM after 12 to 48 hrs by Western blotting method; type: cell-based
[30] = Induction of death receptor signaling-mediated apoptosis in human U2OS cells assessed as increase in FADD level at 30 uM after 12 to 48 hrs by Western blotting method; type: cell-based
[31] = Induction of death receptor signaling-mediated apoptosis in human U2OS cells assessed as increase in caspase-8 level at 30 uM after 12 to 48 hrs by Western blotting method; type: cell-based
[32] = Induction of death receptor signaling-mediated apoptosis in human U2OS cells assessed as increase in Apaf-1 level at 30 uM after 12 to 48 hrs by Western blotting; type: cell-based
[33] = Induction of death receptor signaling-mediated apoptosis in human U2OS cells assessed as increase in caspase-9 level at 30 uM after 12 to 48 hrs by Western blotting; type: cell-based
[34] = Induction of death receptor signaling-mediated apoptosis in human U2OS cells assessed as increase in Endo-G level at 30 uM after 12 to 48 hrs by Western blotting; type: cell-based
[35] = Induction of death receptor signaling-mediated apoptosis in human U2OS cells assessed as increase in AIF level at 30 uM after 12 to 48 hrs by Western blotting; type: cell-based
[36] = Induction of death receptor signaling-mediated apoptosis in human U2OS cells assessed as increase in Bax level at 30 uM after 12 to 48 hrs by Western blotting; type: cell-based
[37] = Induction of death receptor signaling-mediated apoptosis in human U2OS cells assessed as decrease in Bcl-2 level at 30 uM after 12 to 48 hrs by Western blotting; type: cell-based
[38] = Induction of death receptor signaling-mediated apoptosis in human U2OS cells assessed as decrease in Bid level at 30 uM after 12 to 48 hrs by Western blotting; type: cell-based

Q: What does the source list for COc1cccc(Nc2nc(-c3cccc(F)c3)nc3ccc(F)cc23)c1?
A: IC50 [1]: 35.5 µM; IC50 [2]: 39.6 µM; IC50 [3]: 40.4 µM; IC50 [4]: 44.7 µM; IC50 [5]: 30.3 µM; IC50 [6]: 46.3 µM; IC50 [7]: 47.1 µM; growth inhibition (GI) [8]: Dose-dependent effect; Activity [9]: Non-toxic; Activity [10]: Active; Activity [11]: Dose-dependent effect; Activity [12]: inactive; Activity [13]: 76.2%; Activity [14]: tde; Activity [15]: tde; Activity [16]: Active; Activity [17]: Active; Activity [18]: Active; Activity [19]: inactive; Activity [20]: inactive; Activity [21]: inactive; Activity [22]: Active; Activity [23]: Active; Activity [24]: Active; Activity [25]: Active; Activity [26]: inactive; Activity [27]: inactive; Activity [28]: 76.2%; Activity [29]: Active; Activity [30]: Active; Activity [31]: Active; Activity [32]: Active; Activity [33]: Active; Activity [34]: Active; Activity [35]: Active; Activity [36]: Active; Activity [37]: Active; Activity [38]: Active
